# Source: ChEMBL document CHEMBL5126670, “Structure-Activity Relationships for the N-Me- Versus N-H-Amide Modification to Macrocyclic ent-Verticilide Antiarrhythmics” (ACS Med Chem Lett, 2022)
# Calls of active or inactive are those of the source. No cut-off for these calls is given here.
# Target: Ryanodine receptor 2 (Mus musculus) (UniProt E9Q401)
# Experiment: Inhibition of RyR2 in Casq2 gene knockout mouse cardiomyocytes assessed as reduction in calcium sparks frequency at 25 uM incubated for 15 mins by calcium sparks assay
# Format: cell-based
# Conditions: Cardiomyocyte
# Sequence of Ryanodine receptor 2 (Mus musculus) (E9Q401 whole entry): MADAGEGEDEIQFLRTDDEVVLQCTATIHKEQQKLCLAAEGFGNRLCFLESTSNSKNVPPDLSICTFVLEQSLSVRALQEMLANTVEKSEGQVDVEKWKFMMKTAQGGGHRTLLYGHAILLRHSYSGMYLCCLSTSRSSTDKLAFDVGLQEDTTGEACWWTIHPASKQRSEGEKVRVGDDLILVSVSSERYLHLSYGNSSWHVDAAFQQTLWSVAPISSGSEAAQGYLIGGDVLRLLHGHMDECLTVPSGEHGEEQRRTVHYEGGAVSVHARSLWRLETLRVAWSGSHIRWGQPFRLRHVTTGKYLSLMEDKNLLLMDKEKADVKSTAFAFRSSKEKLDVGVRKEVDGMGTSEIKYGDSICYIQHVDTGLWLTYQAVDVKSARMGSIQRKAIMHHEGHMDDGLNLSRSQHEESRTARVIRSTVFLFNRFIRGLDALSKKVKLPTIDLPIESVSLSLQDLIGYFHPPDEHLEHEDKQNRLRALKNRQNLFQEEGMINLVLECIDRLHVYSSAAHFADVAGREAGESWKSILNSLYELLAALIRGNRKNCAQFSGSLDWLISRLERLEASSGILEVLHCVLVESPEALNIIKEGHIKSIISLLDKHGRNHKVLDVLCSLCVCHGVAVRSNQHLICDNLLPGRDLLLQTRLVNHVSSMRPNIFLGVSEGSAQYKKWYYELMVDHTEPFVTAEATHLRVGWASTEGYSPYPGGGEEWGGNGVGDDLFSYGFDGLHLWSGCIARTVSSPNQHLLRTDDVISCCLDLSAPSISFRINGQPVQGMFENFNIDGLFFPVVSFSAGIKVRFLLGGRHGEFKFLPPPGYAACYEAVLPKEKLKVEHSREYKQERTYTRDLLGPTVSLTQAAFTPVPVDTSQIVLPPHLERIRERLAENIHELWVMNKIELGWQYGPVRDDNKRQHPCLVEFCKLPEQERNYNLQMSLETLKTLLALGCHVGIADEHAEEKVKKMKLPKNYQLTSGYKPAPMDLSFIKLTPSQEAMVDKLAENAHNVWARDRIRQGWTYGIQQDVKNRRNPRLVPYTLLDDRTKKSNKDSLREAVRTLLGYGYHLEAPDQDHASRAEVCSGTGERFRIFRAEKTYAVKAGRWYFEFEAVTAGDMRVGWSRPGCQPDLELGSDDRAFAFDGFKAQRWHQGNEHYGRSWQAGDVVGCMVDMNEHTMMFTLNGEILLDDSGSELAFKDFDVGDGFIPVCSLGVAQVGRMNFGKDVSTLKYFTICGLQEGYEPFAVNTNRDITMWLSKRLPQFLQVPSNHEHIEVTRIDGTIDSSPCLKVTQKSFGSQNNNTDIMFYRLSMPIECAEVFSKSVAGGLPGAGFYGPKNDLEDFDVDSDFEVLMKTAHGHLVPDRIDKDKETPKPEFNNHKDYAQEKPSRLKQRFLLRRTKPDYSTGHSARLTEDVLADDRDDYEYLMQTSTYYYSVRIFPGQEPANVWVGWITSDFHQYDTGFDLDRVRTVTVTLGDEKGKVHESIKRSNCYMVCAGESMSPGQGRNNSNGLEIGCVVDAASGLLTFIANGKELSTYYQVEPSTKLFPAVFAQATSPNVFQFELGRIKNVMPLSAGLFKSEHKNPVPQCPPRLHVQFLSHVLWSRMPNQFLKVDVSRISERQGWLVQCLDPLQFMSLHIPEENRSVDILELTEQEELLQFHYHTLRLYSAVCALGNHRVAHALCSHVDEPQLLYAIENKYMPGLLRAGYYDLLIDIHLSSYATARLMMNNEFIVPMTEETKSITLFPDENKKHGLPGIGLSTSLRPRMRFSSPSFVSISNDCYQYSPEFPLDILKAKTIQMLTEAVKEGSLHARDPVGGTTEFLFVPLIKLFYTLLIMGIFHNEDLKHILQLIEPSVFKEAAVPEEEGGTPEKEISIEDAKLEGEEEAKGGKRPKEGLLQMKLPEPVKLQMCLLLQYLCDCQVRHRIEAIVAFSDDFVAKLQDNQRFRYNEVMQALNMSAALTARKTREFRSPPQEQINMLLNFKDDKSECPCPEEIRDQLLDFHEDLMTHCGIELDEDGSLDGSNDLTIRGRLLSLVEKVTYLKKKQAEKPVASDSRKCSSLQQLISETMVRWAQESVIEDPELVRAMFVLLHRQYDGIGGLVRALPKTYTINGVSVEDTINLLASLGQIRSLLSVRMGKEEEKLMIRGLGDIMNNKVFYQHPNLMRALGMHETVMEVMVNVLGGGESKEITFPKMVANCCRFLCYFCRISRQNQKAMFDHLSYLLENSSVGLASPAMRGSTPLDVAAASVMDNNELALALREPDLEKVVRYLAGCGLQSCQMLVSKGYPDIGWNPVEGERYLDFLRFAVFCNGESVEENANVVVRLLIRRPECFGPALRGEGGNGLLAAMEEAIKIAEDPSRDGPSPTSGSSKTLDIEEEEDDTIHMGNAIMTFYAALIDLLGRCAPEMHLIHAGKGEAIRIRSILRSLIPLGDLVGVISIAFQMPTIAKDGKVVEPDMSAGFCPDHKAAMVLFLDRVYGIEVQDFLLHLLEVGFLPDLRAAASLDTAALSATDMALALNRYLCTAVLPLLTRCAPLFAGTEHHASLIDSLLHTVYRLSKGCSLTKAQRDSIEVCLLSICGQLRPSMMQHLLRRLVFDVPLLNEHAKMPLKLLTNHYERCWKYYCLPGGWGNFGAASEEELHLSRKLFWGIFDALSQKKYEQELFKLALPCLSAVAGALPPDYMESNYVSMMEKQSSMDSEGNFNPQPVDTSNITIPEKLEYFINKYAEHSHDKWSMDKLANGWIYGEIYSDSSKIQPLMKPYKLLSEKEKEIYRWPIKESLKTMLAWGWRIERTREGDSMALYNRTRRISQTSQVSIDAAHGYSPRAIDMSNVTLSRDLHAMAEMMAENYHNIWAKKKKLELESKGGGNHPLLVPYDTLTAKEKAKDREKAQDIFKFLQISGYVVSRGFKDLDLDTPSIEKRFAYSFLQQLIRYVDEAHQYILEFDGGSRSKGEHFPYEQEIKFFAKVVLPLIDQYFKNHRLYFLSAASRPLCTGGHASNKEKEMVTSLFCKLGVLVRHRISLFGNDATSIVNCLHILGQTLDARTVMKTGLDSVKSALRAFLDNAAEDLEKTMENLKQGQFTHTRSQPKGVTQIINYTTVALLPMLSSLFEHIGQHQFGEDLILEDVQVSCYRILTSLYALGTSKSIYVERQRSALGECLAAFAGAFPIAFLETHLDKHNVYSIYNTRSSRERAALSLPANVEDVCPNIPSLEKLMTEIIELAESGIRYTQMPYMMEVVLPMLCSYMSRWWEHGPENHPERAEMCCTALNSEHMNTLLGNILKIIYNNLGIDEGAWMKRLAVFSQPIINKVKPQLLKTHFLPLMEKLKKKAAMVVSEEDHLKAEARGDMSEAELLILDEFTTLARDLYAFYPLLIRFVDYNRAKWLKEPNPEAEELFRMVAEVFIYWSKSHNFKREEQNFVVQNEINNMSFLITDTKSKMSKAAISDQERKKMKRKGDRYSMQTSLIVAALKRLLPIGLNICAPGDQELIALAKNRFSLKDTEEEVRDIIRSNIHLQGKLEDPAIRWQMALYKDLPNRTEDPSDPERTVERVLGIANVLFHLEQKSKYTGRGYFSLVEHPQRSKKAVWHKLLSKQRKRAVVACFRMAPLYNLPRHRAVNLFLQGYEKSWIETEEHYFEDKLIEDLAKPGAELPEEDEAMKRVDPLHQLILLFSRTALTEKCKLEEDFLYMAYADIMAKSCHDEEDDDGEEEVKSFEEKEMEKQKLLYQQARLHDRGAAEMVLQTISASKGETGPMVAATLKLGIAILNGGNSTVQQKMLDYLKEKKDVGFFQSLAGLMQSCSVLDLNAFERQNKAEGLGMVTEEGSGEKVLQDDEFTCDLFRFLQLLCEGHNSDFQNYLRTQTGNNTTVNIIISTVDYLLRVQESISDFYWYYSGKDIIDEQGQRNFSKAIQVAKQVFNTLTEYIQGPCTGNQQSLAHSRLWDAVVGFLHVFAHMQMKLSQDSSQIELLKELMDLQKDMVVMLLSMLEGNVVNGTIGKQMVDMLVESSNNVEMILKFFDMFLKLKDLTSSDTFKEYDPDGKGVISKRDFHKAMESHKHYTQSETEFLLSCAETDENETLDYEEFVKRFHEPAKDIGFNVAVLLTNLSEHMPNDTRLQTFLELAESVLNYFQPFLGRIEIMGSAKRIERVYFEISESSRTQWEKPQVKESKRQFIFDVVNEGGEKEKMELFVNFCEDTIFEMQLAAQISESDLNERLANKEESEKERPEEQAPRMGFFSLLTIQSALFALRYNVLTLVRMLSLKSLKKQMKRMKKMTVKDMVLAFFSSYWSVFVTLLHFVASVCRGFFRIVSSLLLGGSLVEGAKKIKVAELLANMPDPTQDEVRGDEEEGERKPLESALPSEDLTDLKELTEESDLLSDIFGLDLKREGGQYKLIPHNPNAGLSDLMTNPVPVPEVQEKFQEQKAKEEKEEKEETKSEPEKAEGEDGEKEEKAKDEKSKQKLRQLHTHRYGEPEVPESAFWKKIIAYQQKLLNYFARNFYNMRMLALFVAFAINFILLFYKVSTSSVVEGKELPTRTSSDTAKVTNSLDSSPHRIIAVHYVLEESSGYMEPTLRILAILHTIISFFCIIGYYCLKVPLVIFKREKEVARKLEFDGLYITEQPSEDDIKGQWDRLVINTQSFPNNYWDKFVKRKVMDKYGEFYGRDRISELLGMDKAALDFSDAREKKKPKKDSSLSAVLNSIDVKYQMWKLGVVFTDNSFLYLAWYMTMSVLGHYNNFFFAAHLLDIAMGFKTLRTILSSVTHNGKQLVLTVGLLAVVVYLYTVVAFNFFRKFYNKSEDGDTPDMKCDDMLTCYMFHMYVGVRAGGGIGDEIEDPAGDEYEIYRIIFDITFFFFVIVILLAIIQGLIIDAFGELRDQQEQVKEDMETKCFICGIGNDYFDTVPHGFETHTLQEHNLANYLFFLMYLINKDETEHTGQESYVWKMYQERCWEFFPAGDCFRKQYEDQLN
row,inhibition,Structure (SMILES)
1,Active,CCCCC[C@@H]1OC(=O)[C@@H](C)N(C)C(=O)[C@H](CCCCC)OC(=O)[C@@H](C)NC(=O)[C@H](CCCCC)OC(=O)[C@@H](C)NC1=O
2,Active,CCCCC[C@@H]1OC(=O)[C@@H](C)N(C)C(=O)[C@H](CCCCC)OC(=O)[C@@H](C)N(C)C(=O)[C@H](CCCCC)OC(=O)[C@@H](C)NC1=O
3,Active,CCCCC[C@@H]1OC(=O)[C@@H](C)NC(=O)[C@H](CCCCC)OC(=O)[C@@H](C)NC(=O)[C@H](CCCCC)OC(=O)[C@@H](C)NC1=O

row,Structure (SMILES),inhibition
1,CCCCC[C@@H]1OC(=O)[C@@H](C)N(C)C(=O)[C@H](CCCCC)OC(=O)[C@@H](C)N(C)C(=O)[C@H](CCCCC)OC(=O)[C@@H](C)N(C)C1=O,Active
